Laboratory results reported in the NIST ThermoML archive (doi:10.1021/acs.jced.6b00640).

Assay: refractive index (Na D-line) (dimensionless); xn = mol fraction of the nth substance listed
Conditions: 100 kPa, Liquid, Standard Abbe refractometry

CCOC(=O)CCC(=O)OCC [diethyl butanedioate] + CCCC(=O)OCC
refractive index
Conditions | x2 = 0.0999 | x2 = 0.2 | x2 = 0.3003 | x2 = 0.3999 | x2 = 0.5 | x2 = 0.5997 | x2 = 0.7 | x2 = 0.7999 | x2 = 0.8999
288.15 K | 1.4198 | 1.4177 | 1.4154 | 1.413 | 1.4104 | 1.4076 | 1.4048 | 1.4016 | 1.3986
293.15 K | 1.4176 | 1.4155 | 1.4132 | 1.4107 | 1.4081 | 1.4053 | 1.4024 | 1.3992 | 1.3961
298.15 K | 1.4154 | 1.4132 | 1.4109 | 1.4084 | 1.4058 | 1.403 | 1.4 | 1.3968 | 1.3937
303.15 K | 1.4132 | 1.411 | 1.4086 | 1.4061 | 1.4035 | 1.4006 | 1.3976 | 1.3944 | 1.3912
308.15 K | 1.411 | 1.4088 | 1.4063 | 1.4038 | 1.4011 | 1.3982 | 1.3952 | 1.392 | 1.3888
313.15 K | 1.4088 | 1.4065 | 1.4041 | 1.4015 | 1.3988 | 1.3959 | 1.3928 | 1.3895 | 1.3862
318.15 K | 1.4066 | 1.4043 | 1.4018 | 1.3992 | 1.3964 | 1.3935 | 1.3904 | 1.387 | 1.3837
323.15 K | 1.4044 | 1.402 | 1.3995 | 1.3968 | 1.394 | 1.391 | 1.3878 | 1.3844 | 1.3809
